Laboratory results from PMC10051477, “5,8-Dimethyl-9H-carbazole Derivatives Blocking hTopo I Activity and Actin Dynamics” (Pharmaceuticals, 2023).

What was measured:
[1] = target: T1, labeled rabbit muscle actin (Oryctolagus cuniculus, UniProt P68135); assay: In vitro actin polymerization assay; type: biochemical; details: 5 µM, 1 h, room temperature; vehicle plateau about 25,000 RFU
T1 construct: fluorescent label (chemical); purchased Abcam; host or cells: rabbit muscle
Source text: With the aim to confirm the immunofluorescence results and substantiate whether compounds 3 and 4 could inhibit the actin polymerization mechanism and/or boost the F-actin depolymerization, we employed a fluorescent-labeled purified rabbit actin. LA and cytochalasin B (CB) were used as positive controls for both the polymerization inhibition and F-actin subunits dissociation, or only the polymerization inhibition, respectively. In the negative control reaction (only vehicle), actin monomers undergo a normal polymerization, as visible in Figure 5, panel A. The reaction curve rises in approximately 5 min to a value of about 25,000 RFU (plateau) which remains almost unvaried until the end of the experiment. Contrariwise, the two reference molecules, i.e., LA and CB, used at the concentration of 5 µM, braked the actin polymerization, mostly LA rather than CB, under the adopted experimental conditions, and the LA curve dropped until a value of about 8000 RFU at the reaction end.
(§1) An Actin Polymerization/Depolymerization Assay Kit, purchased from Abcam, was employed to assess the ability of compounds 3 and 4 to interfere with the actin polymerization and depolymerization processes. To perform the essays, the manufacturer’s instructions were followed with some modifications. In particular, polymerization assay was carried out incubating in a white 96-well plate the reconstituted actin with supplemented Buffer G, compounds 3 and 4 and then Buffer P was added in order to induce actin polymerization. For the Actin Depolymerization Assay, the actin polymerization was first induced, incubating supplemented Buffers P and G at room temperature for one hour. Then, compounds 3 and 4 were added at a concentration of 5 μM. Latrunculin A (LA) and Cytochalasin B (CB) were utilized as positive control at a concentration of 5 μM. For both the assays, the assemblage of the actin filaments was defined by measuring the fluorescence (Ex/Em: 365/410 nm) in kinetic mode for 1 h at room temperature in a microplate reader.

[2] = target: T2, F-actin (labeled rabbit muscle actin) (Oryctolagus cuniculus, UniProt P68135); assay: In vitro F-actin depolymerization assay; type: biochemical; details: 5 µM added after 1 h polymerization
T2 construct: fluorescent label (chemical); purchased Abcam; host or cells: rabbit muscle
Description: Moreover, we performed the F-actin depolymerization assay to verify whether compounds 3 and 4 could induce the actin depolymerization as well as the LA does (Figure 5, panel B). For this purpose, we started the actin polymerization for one hour under the same experimental conditions used previously. Then, we added the compounds or the reference molecules at the concentration of 5 µM and monitored the reactions for an additional hour. […] The addition of CB was not able to produce the same effect of LA. […] Contrarily, both the compounds were able to induce an important depolymerizing effect on the F-actin, most evident in the first 7 min after the exposure. Particularly, compounds 3 and 4 produced final values of approximately 14,000 and 12,000 RFU, respectively. […] This combined effect leads to a disorganization of the intracellular actin network.
as §1

MDA-MB-231 cells = assay: MTT assay, MDA-MB-231 cell viability; type: cell-based; details: Homo sapiens, 72 h, mean ± standard deviation
Description: (§2) The inhibition of cancer cell growth exerted by the five considered compounds (1–5) has been evaluated in vitro against two models of breast cancer, namely the estrogen receptor positive (ER+) MCF-7 and the triple negative MDA-MB-231 human breast cancer cells (lacking ER, PR, and HER-2/Neu amplification), together with the normal counterpart, namely the non-malignant breast epithelial cells MCF-10A. […] Moreover, no effects were recorded against the MCF-7 cells, at least until the concentration of 100 μM. […] Thus, the two lead compounds were chosen for subsequent studies aiming at individuating the molecular mechanisms underlying the observed anticancer activity.
(§3) MTT assays (Sigma Aldrich (St.Louis, MO, USA)) were employed to evaluate the in vitro anticancer activities of all the studied compounds, as previously described. The compounds were tested at different concentrations (0.1-1-10-25-50-100 μM) for 72 h. The IC50 values were calculated from the percent (%) of control using GraphPad Prism 9 (GraphPad Software, La Jolla, CA, USA).

MCF-7 cells = assay: MTT assay, MCF-7 cell viability; type: cell-based; details: Homo sapiens, MCF7, 72 h, mean ± standard deviation
Description: as §3

MCF-10A cells = assay: MTT assay, MCF-10A normal cell viability; type: cell-based, human; details: Homo sapiens, MCF-10A, 72 h, non-malignant breast epithelial cells, mean ± standard deviation
Description: as §2, §3

[3] = system: actin system in MDA-MB-231 cells; assay: Actin immunofluorescence in MDA-MB-231 cells; type: cell-based, human; details: MDA-MB-231, 24 h; compounds at their IC50 values, LA 0.1 µM
Description: In order to determine whether the lead compounds 3 and 4 may effectively regulate the actin system, we employed both the immunofluorescence and in vitro direct enzymatic assays. […] As negative and positive controls, we used the only vehicle (DMSO) and latrunculin A (LA) at a concentration of 0.1 µM, respectively. After processing, the cells were observed under a fluorescent microscope, (see experimental section for the details). […] Moreover, the latter looked brighter and stocked in the cytoplasm in dot-like structures or thicker fibers. Again, the MDA-MB-231 cells, under exposure to compounds 3 and 4, lost their shape (Figure 4, compounds 3 and 4, panels B), as we observed under LA treatment, and with a very similar arrangement of the actin network.
The cells were plated and further processed, as previously indicated. Specifically, the rabbit anti-β-Actin (Santa Cruz Biotechnology, Dallas, TX, USA), diluted 1:100 in bovine serum albumin (BSA) 2%, was used as primary antibody and incubated overnight at 4 °C. The secondary antibody, Alexa Fluor® 488 conjugate goat-anti-rabbit, was diluted 1:500 and incubated for 2 h at 37 °C. DAPI (4′,6-diamidino-2-phenylindole, Sigma Aldrich, Milan, Italy) 0.2 μg/mL was used for nuclei staining. A fluorescence microscope (Leica DM 6000) was utilized for fluorescence detection (40× magnification). LAS-X software allowed acquiring and processing all the fluorescence images, which are representative of three separate experiments.

Row | SMILES | Actin polymerization, final fluorescence value of reaction curve [1] | F-actin depolymerizing effect [2] | IC50 (MDA-MB-231 cells) [µM] | IC50 (MCF-7 cells) [µM] | IC50 (MCF-10A cells) [µM] | Effect on actin organization (immunofluorescence) [3] | F-actin depolymerization, final fluorescence value of reaction curve ([2]; monitored 1 h, vehicle 20,000 RFU)
1 | C=C1[C@@H](C)[C@H]2[C@H](Cc3ccccc3)NC(=O)[C@]23OC(=O)/C=C/[C@H](O)CCC[C@@H](C)C/C=C/[C@H]3[C@@H]1O [CB, Cytochalasin B, reference compound] | approximately 13,000 RFU | does not induce the F-actin depolymerization | – | – | – | – | –
2 | Cc1ccc(C)c2c1c1cc(Br)ccc1n2C(=O)OC(C)(C)C [Compound 1] | – | – | 43.5 ± 1.21 | > 100 | > 100 | – | –
3 | COc1ccc2c(c1)c1c(C)ccc(C)c1n2C(=O)OC(C)(C)C [Compound 2] | – | – | 8.19 ± 0.26 | > 100 | 89.16 ± 0.47 | – | –
4 | Cc1ccc(C)c2c1[nH]c1ccc(O)cc12 [Compound 5, 5,8-Dimethyl-9H-carbazol-3-ol] | – | – | 6.59 ± 0.68 | > 100 | > 100 | – | –
5 | Cc1c2ccncc2c(C)c2c1[nH]c1ccccc12 [Ellipticine, reference compound] | – | – | 1.92 ± 0.38 | – | 1.12 ± 0.51 | – | –
6 | C/C1=C/C(=O)O[C@@H]2C[C@@H](CC[C@H](C)/C=C\C=C\CC1)O[C@@](O)([C@@H]1CSC(=O)N1)C2 [LA, Latrunculin A, reference compound] | about 8000 RFU | – | – | – | – | the cells underwent an important shape change | about 8000 RFU
